Tests used:
[1] = test system: NCI-H835 (Other Solid Carcinomas); test: Bliss excess, mean over the matrix (fraction); higher = more synergy
In short: (§1)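 After 24 hours at 37°C and 5% CO2 in 1536-well plates, cells in DMEM/F12 or RPMI plus 10% FBS received two-drug dose matrices for 72 hours. Viability came from CellTiter-Glo 2.0 luminescence and was scaled as inhibition, anchored at 0 by vehicle wells and at 1 by blank wells. Combination Emax is taken as the second-highest inhibition in the matrix, and Bliss excess as the observed combination effect less EA + EB − EA·EB, with EA and EB the single-agent effects.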

[2] = test system: KNS-62 (Squamous Cell Lung Carcinoma); test: combination Emax (second highest fraction inhibited in the dose matrix, 72 h); higher = more inhibition; extreme values may be limits of the assay
In short: as §1

[3] = test system: ATN-1 (T-Lymphoblastic Leukemia); test: as above
In short: as §1

[4] = test system: OCI-M1 (Acute Myeloid Leukemia); test: as above
In short: as §1

[5] = test system: IGROV-1 (Ovarian Carcinoma); test: as above
In short: as §1

[6] = test system: MDA-MB-175-VII (Breast Carcinoma); test: as above
In short: as §1

C32 (Melanoma) = test: as above
In short: as §1

[7] = test system: L-363 (Plasma Cell Myeloma); test: as above
In short: as §1

[8] = test system: RS4-11 (B-Lymphoblastic Leukemia); test: as above
In short: as §1

[9] = test system: NTERA-2-cl-D1 (Other Solid Carcinomas); test: as above
In short: as §1

NCI-H2452 (Mesothelioma) = test: as above
In short: as §1

[10] = test system: NCI-H2170 (Squamous Cell Lung Carcinoma); test: as above
In short: as §1

[11] = test system: NCI-H2009 (Lung Adenocarcinoma); test: as above
In short: as §1

[12] = test system: SBC-5 (Small Cell Lung Carcinoma); test: as above
In short: as §1

[13] = test system: Daudi (Burkitt's Lymphoma); test: as above
In short: as §1

[14] = test system: NCI-H835 (Other Solid Carcinomas); test: as above
In short: as §1
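For Bliss excess, mean over the matrix in this document: after 72 h of two-drug dosing.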

Row | Structure (SMILES) | Bliss excess [1] | combination Emax [2] | combination Emax [3] | combination Emax [4] | combination Emax [5] | combination Emax [6] | combination Emax (C32 (Melanoma)) | combination Emax [7] | combination Emax [8] | combination Emax [9] | combination Emax (NCI-H2452 (Mesothelioma)) | combination Emax [10] | combination Emax [11] | combination Emax [12] | combination Emax [13] | combination Emax [14]
1 | COc1nnc2ccc(N3CCC(c4ccc(OCCN5CCN(C)C(=O)[C@H]5C)cc4)CC3)nn12 [AZD5153] + CC1(C)CCC(CN2CCN(c3ccc(C(=O)NS(=O)(=O)c4ccc(NCC5CCOCC5)c([N+](=O)[O-])c4)c(Oc4cnc5[nH]ccc5c4)c3)CC2)=C(c2ccc(Cl)cc2)C1 [Venetoclax] (first compound max 1 µM, 7x7, partner max 1 µM) | -0.125 | 0.519 | 0.516 | 1 | 0.669 | 0.475 | 0.261 | 0.528 | 1 | 0.654 | 0.411 | 0.484 | 0.373 | 0.518 | 0.58 | 0.372
2 | COc1nnc2ccc(N3CCC(c4ccc(OCCN5CCN(C)C(=O)[C@H]5C)cc4)CC3)nn12 [AZD5153] + CCN(CCO)CCCOc1ccc2c(Nc3cc(CC(=O)Nc4cccc(F)c4)[nH]n3)ncnc2c1 [AZD2811] (first compound max 1 µM, 7x7, partner max 1 µM) | -0.0626 | 0.596 | 0.734 | 1 | 0.618 | 0.509 | 0.38 | 0.589 | 0.977 | 0.68 | 0.433 | 0.717 | 0.382 | 0.718 | 0.677 | 0.384
3 | COc1nnc2ccc(N3CCC(c4ccc(OCCN5CCN(C)C(=O)[C@H]5C)cc4)CC3)nn12 [AZD5153] + C[C@@H]1COCCN1C2=NC(=NC(=C2)C3(CC3)[S@](=N)(=O)C)C4=C5C=CNC5=NC=C4 [AZD6738] (first compound max 1 µM, 7x7, partner max 10 µM) | -0.0811 | 0.625 | 0.984 | 1 | 0.843 | 0.529 | 0.606 | 0.849 | 0.944 | 0.832 | 0.574 | 0.788 | 0.645 | 0.83 | 0.843 | 0.727
4 | COc1nnc2ccc(N3CCC(c4ccc(OCCN5CCN(C)C(=O)[C@H]5C)cc4)CC3)nn12 [AZD5153] + Cc1c2c(nn1C)CSCc1cc(n(C)n1)CSc1cc(c3ccccc3c1)OCCCc1c(C(=O)O)n(C)c3c-2c(Cl)ccc13 [AZD5991] (first compound max 1 µM, 7x7, partner max 1 µM) | -0.115 | 0.503 | 0.999 | 1 | 0.889 | 0.553 | 0.947 | 0.994 | 0.937 | 0.97 | 0.53 | 0.636 | 0.379 | 0.988 | 0.916 | 0.599
5 | COc1nnc2ccc(N3CCC(c4ccc(OCCN5CCN(C)C(=O)[C@H]5C)cc4)CC3)nn12 [AZD5153] + Cn1cnc2c(F)c(Nc3ccc(Br)cc3Cl)c(C(=O)NOCCO)cc21 [Selumetinib] (first compound max 1 µM, 7x7, partner max 10 µM) | -0.0256 | 0.647 | 0.508 | 1 | 0.736 | 0.493 | 1 | 0.709 | 0.593 | 0.712 | 0.446 | 0.405 | 0.716 | 0.662 | 0.527 | 0.446
6 | NC1(C(=O)N[C@@H](CCO)c2ccc(Cl)cc2)CCN(c2ncnc3[nH]ccc23)CC1 [Capivasertib] + CC(=O)c1c(C)c2cnc(Nc3ccc(N4CCNCC4)cn3)nc2n(C2CCCC2)c1=O [Palbociclib] (first compound max 10 µM, 7x7, partner max 10 µM) | -0.0562 | 0.599 | 0.686 | 0.61 | 0.86 | 0.556 | 0.413 | 0.509 | 0.605 | 0.294 | 0.474 | 0.527 | 0.242 | 0.353 | 0.491 | 0.426
7 | NC1(C(=O)N[C@@H](CCO)c2ccc(Cl)cc2)CCN(c2ncnc3[nH]ccc23)CC1 [Capivasertib] + CC(C)n1c(=O)n(C)c2cnc3cc(F)c(-c4ccc(OCCCN5CCCCC5)nc4)cc3c21 [AZD1390] (first compound max 10 µM, 7x7, partner max 0.3 µM) | -0.179 | 0.547 | 0.778 | 0.287 | 0.799 | 0.635 | 0.353 | 0.465 | 0.32 | 0.312 | 0.399 | 0.54 | 0.372 | 0.281 | 0.338 | 0.403
8 | NC1(C(=O)N[C@@H](CCO)c2ccc(Cl)cc2)CCN(c2ncnc3[nH]ccc23)CC1 [Capivasertib] + CCN(CCO)CCCOc1ccc2c(Nc3cc(CC(=O)Nc4cccc(F)c4)[nH]n3)ncnc2c1 [AZD2811] (first compound max 10 µM, 7x7, partner max 1 µM) | -0.103 | 0.561 | 0.86 | 0.619 | 0.76 | 0.683 | 0.54 | 0.549 | 0.96 | 0.481 | 0.403 | 0.834 | 0.386 | 0.383 | 0.806 | 0.535
9 | NC1(C(=O)N[C@@H](CCO)c2ccc(Cl)cc2)CCN(c2ncnc3[nH]ccc23)CC1 [Capivasertib] + COc1nnc2ccc(N3CCC(c4ccc(OCCN5CCN(C)C(=O)[C@H]5C)cc4)CC3)nn12 [AZD5153] (first compound max 10 µM, 7x7, partner max 1 µM) | 0.0792 | 0.809 | 0.654 | 1 | 0.804 | 0.571 | 0.687 | 0.879 | 0.867 | 0.564 | 0.456 | 0.594 | 0.498 | 0.563 | 0.793 | 0.944
10 | NC1(C(=O)N[C@@H](CCO)c2ccc(Cl)cc2)CCN(c2ncnc3[nH]ccc23)CC1 [Capivasertib] + C[C@@H]1COCCN1C2=NC(=NC(=C2)C3(CC3)[S@](=N)(=O)C)C4=C5C=CNC5=NC=C4 [AZD6738] (first compound max 10 µM, 7x7, partner max 10 µM) | -0.072 | 0.738 | 0.965 | 0.985 | 0.865 | 0.683 | 0.631 | 0.824 | 0.967 | 0.477 | 0.72 | 0.809 | 0.453 | 0.7 | 0.709 | 0.456
11 | NC1(C(=O)N[C@@H](CCO)c2ccc(Cl)cc2)CCN(c2ncnc3[nH]ccc23)CC1 [Capivasertib] + Cn1cnc2c(F)c(Nc3ccc(Br)cc3Cl)c(C(=O)NOCCO)cc21 [Selumetinib] (first compound max 10 µM, 7x7, partner max 10 µM) | -0.027 | 0.914 | 0.77 | 0.926 | 0.882 | 0.957 | 1 | 0.605 | 0.468 | 0.321 | 0.344 | 0.653 | 0.584 | 0.627 | 0.212 | 0.41
12 | CS(=O)(=O)CCNCc1ccc(-c2ccc3ncnc(Nc4ccc(OCc5cccc(F)c5)c(Cl)c4)c3c2)o1 [Lapatinib] + C[C@@H](Oc1cc(-c2cnn(C3CCNCC3)c2)cnc1N)c1c(Cl)ccc(F)c1Cl [Crizotinib] (first compound max 10 µM, 7x7, partner max 10 µM) | -0.117 | 0.856 | 0.988 | 0.996 | 1 | 1 | 0.7 | 0.932 | 0.883 | 0.957 | 0.804 | 0.998 | 0.732 | 0.832 | 0.945 | 0.459
13 | CC(=O)c1c(C)c2cnc(Nc3ccc(N4CCNCC4)cn3)nc2n(C2CCCC2)c1=O [Palbociclib] + CC1(C)CCC(CN2CCN(c3ccc(C(=O)NS(=O)(=O)c4ccc(NCC5CCOCC5)c([N+](=O)[O-])c4)c(Oc4cnc5[nH]ccc5c4)c3)CC2)=C(c2ccc(Cl)cc2)C1 [Venetoclax] (first compound max 10 µM, 7x7, partner max 1 µM) | -0.143 | 0.268 | 0.608 | 0.499 | 0.537 | 0.171 | 0.0845 | 0.208 | 1 | 0.134 | 0.282 | 0.362 | 0.0582 | 0.23 | 0.442 | 0.255
14 | CC(=O)c1c(C)c2cnc(Nc3ccc(N4CCNCC4)cn3)nc2n(C2CCCC2)c1=O [Palbociclib] + Cc1c2c(nn1C)CSCc1cc(n(C)n1)CSc1cc(c3ccccc3c1)OCCCc1c(C(=O)O)n(C)c3c-2c(Cl)ccc13 [AZD5991] (first compound max 10 µM, 7x7, partner max 1 µM) | -0.0004 | 0.329 | 0.954 | 0.457 | 0.815 | 0.249 | 0.254 | 0.994 | 0.841 | 0.509 | 0.336 | 0.389 | 0.179 | 0.443 | 0.571 | 0.416
15 | CC(=O)c1c(C)c2cnc(Nc3ccc(N4CCNCC4)cn3)nc2n(C2CCCC2)c1=O [Palbociclib] + Cn1cnc2c(F)c(Nc3ccc(Br)cc3Cl)c(C(=O)NOCCO)cc21 [Selumetinib] (first compound max 10 µM, 7x7, partner max 10 µM) | -0.0551 | 0.552 | 0.48 | 0.833 | 0.782 | 0.389 | 0.959 | 0.301 | 0.488 | 0.249 | 0.331 | 0.3 | 0.363 | 0.251 | 0.415 | 0.133

Reference: the supplement of paper PMC11061612
